Series [1] has as its system Ms sGC-NT23. Put plainly: Photoaffinity labeling with IWP-854, western blot, Ms sGC-NT23. The class given is binding, Manduca sexta.
Series [2] has as its system Ms sGC-β1. As to the kind of experiment: Photoaffinity labeling with IWP-854, western blot, Ms sGC-β1. The format is binding, Manduca sexta.
Series [3] has as its target T1, human sGC (Homo sapiens, UniProt Q02153).
T1 construct: Hs SGC-β1 (β1 1-619-His6); expressed in transfected cells; host or cells: HEK293T
T1 sequence (Q02153 1-619): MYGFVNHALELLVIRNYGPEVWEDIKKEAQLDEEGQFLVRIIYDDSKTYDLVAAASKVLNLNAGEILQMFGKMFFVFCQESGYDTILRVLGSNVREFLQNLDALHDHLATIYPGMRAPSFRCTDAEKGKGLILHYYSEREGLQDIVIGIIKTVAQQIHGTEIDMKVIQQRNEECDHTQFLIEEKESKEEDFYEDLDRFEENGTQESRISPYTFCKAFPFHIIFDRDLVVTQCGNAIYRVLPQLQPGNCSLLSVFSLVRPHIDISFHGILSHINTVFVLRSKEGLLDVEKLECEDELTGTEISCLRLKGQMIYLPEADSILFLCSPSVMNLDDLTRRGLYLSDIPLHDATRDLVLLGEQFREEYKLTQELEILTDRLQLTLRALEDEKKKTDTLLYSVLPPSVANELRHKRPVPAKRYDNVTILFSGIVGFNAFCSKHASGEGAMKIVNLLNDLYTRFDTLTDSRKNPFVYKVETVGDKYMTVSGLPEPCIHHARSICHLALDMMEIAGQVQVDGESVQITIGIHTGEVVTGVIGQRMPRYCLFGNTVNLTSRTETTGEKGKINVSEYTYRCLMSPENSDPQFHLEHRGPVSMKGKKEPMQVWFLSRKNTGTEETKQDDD
T1 sequence (Q02108 1-690 partner): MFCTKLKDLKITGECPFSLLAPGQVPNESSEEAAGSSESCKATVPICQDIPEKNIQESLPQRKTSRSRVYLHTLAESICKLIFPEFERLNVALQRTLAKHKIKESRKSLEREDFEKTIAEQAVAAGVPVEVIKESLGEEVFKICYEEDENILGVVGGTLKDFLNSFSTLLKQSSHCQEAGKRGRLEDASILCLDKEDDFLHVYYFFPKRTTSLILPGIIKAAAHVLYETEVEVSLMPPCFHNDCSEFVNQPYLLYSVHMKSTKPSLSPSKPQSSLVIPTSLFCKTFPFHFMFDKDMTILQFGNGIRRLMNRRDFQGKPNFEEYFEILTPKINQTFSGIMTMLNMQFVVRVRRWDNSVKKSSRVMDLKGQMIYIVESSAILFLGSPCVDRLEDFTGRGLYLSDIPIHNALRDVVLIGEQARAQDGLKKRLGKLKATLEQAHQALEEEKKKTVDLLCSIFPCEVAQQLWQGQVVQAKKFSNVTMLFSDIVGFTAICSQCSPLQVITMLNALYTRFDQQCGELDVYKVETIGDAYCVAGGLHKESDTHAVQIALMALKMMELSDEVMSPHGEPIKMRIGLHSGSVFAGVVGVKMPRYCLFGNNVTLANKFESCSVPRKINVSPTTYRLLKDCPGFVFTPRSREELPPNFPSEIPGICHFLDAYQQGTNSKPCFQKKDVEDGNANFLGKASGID
As to the kind of experiment: cGMP measurement, catalytic activity of human sGC in transfected HEK293T lysate. Conditions: stimulator 5 μM. The format is biochemical.

The subject of series [4] is bacterial H-NOX proteins (Cb SONO, Ns H-NOX, So H-NOX, Sw H-NOX). The class given is binding.
In series [5] the test system is Ms sGC-NT23. Put plainly: Determination of CO dissociation constants, Ms sGC-NT23. The class given is binding, Manduca sexta. Conditions: stimulator 5 μM, versus no stimulator.
The target in series [6] is T2, full-length Hs sGC (Homo sapiens, UniProt Q02153).
T2 construct: Full-length human sGC was purchased from Enzo Life Sciences, Inc; purchased Enzo Life Sciences, Inc
T2 sequence (Q02153 1-619): T1 sequence (Q02153 1-619)
T2 sequence (Q02108 1-690 partner): T1 sequence (Q02108 1-690 partner)
Put plainly: Photoaffinity labeling with IWP-854, western blot, full-length Hs sGC. The class given is binding. Conditions: IWP-854 1 μM; not competed away with excess stimulator.

The subject of series [7] is bacterial H-NOX proteins (Cb SONO, Ns H-NOX, So H-NOX, Sw H-NOX). The format is binding. The source holds these as a separate data set.
The nature of series [8]: Compound solubility. The format is physicochemical.
For series [9] the following is noted: background statement; cited from earlier work.

In the case of `CC1(CCCN(CCOCCOCCOCCOCCC(=O)NCCOCCOCCOCCOCCOCCOCCOCCOCCOCCOCCOC(C)(C)CCNC(=O)CCCCC2SC[C@@H]3NC(=O)N[C@H]23)c2nc(-c3cc(-c4ccon4)n(Cc4ccccc4F)n3)ncc2F)N=N1` (stereo partly shown) [IWP-854], in series [1] (IWP-854 1 μM, 15 min UV, anti-biotin western blot), the “subunit cross-linked by IWP-854” value is reported as “cross-links exclusively to the β1 subunit”. Also, the “labeling of the isolated β1 subunit” value in [2] (β1 residues 1-380) is “labeled the isolated β1 subunit”. Further, the “increase of sGC activity over basal levels” value in series [3] (absence of added NO) turned out to be 12 fold. In [3] (basal and NO stimulated), the “stimulation of recombinant human sGC, compared with BAY 41-2272” value is reported as “stimulate to a similar extent as BAY 41-2272”. In series [3] (upon addition of NO (DEA/NO 100 μM)), the “increase of sGC activity over basal” value is 84 fold. In series [4], the “amount of IWP-854 required for photoaffinity labeling relative to sGC constructs” value is given as 10 fold and the “labeling of bacterial H-NOX proteins” value is “labeled all four bacterial H-NOX proteins”. The “enhancement of CO affinity” value in [5] was 34 fold. Besides, the “labeling of the α1 subunit” value in [6] is on record as “Faint labeling was observed on the α1 subunit”.
On to `Nc1nc(-c2nn(Cc3ccccc3F)c3ncccc23)ncc1C1CC1` [BAY 41-2272, reference compound], for which the “enhancement of CO binding” value in series [7] is on record as “did not enhance CO binding”. Moreover, in series [1] (BAY 41-2272 1-25 μM against IWP-854 1 μM), the “competition of IWP-854 cross-linking” value was “attenuated IWP-854 cross-linking to Ms sGC-NT23 in a concentration-dependent manner”. The “competition of IWP-854 labeling” value in series [2] (BAY 41-2272 against IWP-854) is recorded as “failed to diminish IWP-854 labeling”; in series [4] it was “reduced but not eliminated”. Also, the “enhancement of CO affinity” value in series [5] stood at 14 fold. Also, the compound solubility result in series [8] is “poor compound solubility”.
For the compound `O=c1[nH]c(-c2cc(-c3ccon3)n(Cc3ccccc3F)n2)ncc1F` [IWP-051], the “solubility compared with traditional stimulators” value in series [9] is recorded as “improved solubility over traditional stimulators”.
